Read-outs that look alike come from different tables or passages of the source.
Legend:
r(CUG)12-MBNL1 complex = test: Inhibition of the r(CUG)12-MBNL1 complex measured by TR-FRET; format: biochemical; conditions: 80 nM RNA, 60 nM MBNL1-His6
[1] = system: MBNL1 exon 5 inclusion in DM1 myotubes; test: Myotube splicing rescue assay (MBNL1 exon 5 inclusion); format: cell-based, human; conditions: 48-hour incubation
HSALR strain 20b mice = test: DM1 mouse efficacy study: RT-PCR of MBNL1-dependent splicing targets in gastrocnemius; format: in vivo; conditions: sc, subcutaneous
[2] = 7.5 mg/kg qod 8 doses, read-out: Clcn1 exon 7a splicing rescue %
[3] = 7.5 mg/kg qod 8 doses, read-out: Mbnl1 exon 5 splicing rescue %
[4] = 7.5 mg/kg qod 8 doses, read-out: Serca1 exon 22 splicing rescue %
[5] = 7.5 mg/kg qod 8 doses, read-out: Zasp exon 11 splicing rescue %
[6] = 7.5 mg/kg qod 5 doses, read-out: Clcn1 exon 7a splicing rescue %
[7] = 7.5 mg/kg qod 5 doses, read-out: Mbnl1 exon 5 splicing rescue %
[8] = 7.5 mg/kg qod 5 doses, read-out: Serca1 exon 22 splicing rescue %

Structure (SMILES) | IC50 (r(CUG)12-MBNL1 complex; Table L) [µM] | MBNL1 % splicing rescue at 1 μM [1] [%] | MBNL1 % splicing rescue at 10 μM [1] [%] | IC50 (r(CUG)12-MBNL1 complex; Table M) [µM] | also measured
CN(C)CCCOc1ccc2nc(-c3ccc(-c4nc5ccc(OCCCN(C)C)cc5[nH]4)cc3)[nH]c2c1 [Compound 58, 3,3′-((2,2′-(1,4-phenylene)bis(1H-benzo[d]imidazole-6,2-diyl))bis(oxy))bis(N,N-dimethylpropan-1-amine)] | 19.8 | 11.0 | 79.1 |  | percent splicing rescue at 7.5 mg/kg (HSALR strain 20b mice; [2]): 68.3%; percent splicing rescue at 7.5 mg/kg (HSALR strain 20b mice; [3]): 80.2%; percent splicing rescue at 7.5 mg/kg (HSALR strain 20b mice; [4]): 90.5%; percent splicing rescue at 7.5 mg/kg (HSALR strain 20b mice; [5]): 102%
CN(C)CCCSc1ccc2nc(-c3ccc(-c4nc5ccc(SCCCN(C)C)cc5[nH]4)cc3)[nH]c2c1 [Compound 60, 3,3′-((2,2′-(1,4-phenylene)bis(1H-benzo[d]imidazole-6,2-diyl))bis(sulfanediyl))bis(N,N-dimethylpropan-1-amine)] | 40 | 18.9 | 80.9 |  | percent splicing rescue at 7.5 mg/kg (HSALR strain 20b mice; [6]): 87.7%; percent splicing rescue at 7.5 mg/kg (HSALR strain 20b mice; [7]): 95.3%; percent splicing rescue at 7.5 mg/kg (HSALR strain 20b mice; [8]): 86%; percent splicing rescue at 7.5 mg/kg (HSALR strain 20b mice; 7.5 mg/kg qod 5 doses, read-out: Zasp exon 11 splicing rescue %): 88.3%
Nc1ccc2nc(-c3ccc(-c4nc5ccc(NC6=NCCN6C6=NCCN6)cc5[nH]4)cc3)[nH]c2c1 [Compound 75, 2-(4-(6-amino-1H-benzo[d]imidazol-2-yl)phenyl)-N-(4,4′,5,5′-tetrahydro-1H-[1,2′-biimidazol]-2-yl)-1H-benzo[d]imidazol-6-amine] | 3.2 |  | 0.0 |  | percent splicing rescue at 30 mg/kg (HSALR strain 20b mice; 30 mg/kg qd 7 doses, read-out: Clcn1 exon 7a splicing rescue %): 39.4%; percent splicing rescue at 30 mg/kg (HSALR strain 20b mice; 30 mg/kg qd 7 doses, read-out: Mbnl1 exon 5 splicing rescue %): 93.9%; percent splicing rescue at 30 mg/kg (HSALR strain 20b mice; 30 mg/kg qd 7 doses, read-out: Serca1 exon 22 splicing rescue %): 50%; percent splicing rescue at 30 mg/kg (HSALR strain 20b mice; 30 mg/kg qd 7 doses, read-out: Zasp exon 11 splicing rescue %): 95.6%
CN(C)CCNC(=O)c1ccc(-c2nc3cc(-c4ccc5[nH]c(-c6ccc(C(=O)NCCN(C)C)cc6)nc5c4)ccc3[nH]2)cc1 [Compound 108, 4,4′-(1H,1′H-[5,5′-bibenzo[d]imidazole]-2,2′-diyl)bis(N-(2-(dimethylamino)ethyl)benzamide)] | 13 | 0.0 | 63.4 |  | percent splicing rescue at 30 mg/kg (HSALR strain 20b mice; 30 mg/kg qod 8 doses, read-out: Clcn1 exon 7a splicing rescue %): 32.5%; percent splicing rescue at 30 mg/kg (HSALR strain 20b mice; 30 mg/kg qod 8 doses, read-out: Mbnl1 exon 5 splicing rescue %): 57.4%; percent splicing rescue at 30 mg/kg (HSALR strain 20b mice; 30 mg/kg qod 8 doses, read-out: Serca1 exon 22 splicing rescue %): 59.1%; percent splicing rescue at 30 mg/kg (HSALR strain 20b mice; 30 mg/kg qod 8 doses, read-out: Zasp exon 11 splicing rescue %): 50.1%
CN(C)CCCOc1ccc(-c2nc3cc(-c4ccc5[nH]c(-c6ccc(OCCCN(C)C)cc6)nc5c4)ccc3[nH]2)cc1 [Compound 152] | 10.7 | 85.4 | 79.8 |  | percent splicing rescue at 7.5 mg/kg (HSALR strain 20b mice; [3]): 40.6%; percent splicing rescue at 7.5 mg/kg (HSALR strain 20b mice; [4]): -19.8%; percent splicing rescue at 7.5 mg/kg (HSALR strain 20b mice; [5]): 46.1%
CN(C)CCOc1ccc(-c2nc3cc(-c4ccc5[nH]c(-c6ccc(OCCN(C)C)cc6)nc5c4)ccc3[nH]2)cc1 [Compound 153] | 29 | 82.1 | 106.1 |  | percent splicing rescue at 7.5 mg/kg (HSALR strain 20b mice; [2]): 48.4%; percent splicing rescue at 7.5 mg/kg (HSALR strain 20b mice; [3]): 40.8%; percent splicing rescue at 7.5 mg/kg (HSALR strain 20b mice; [4]): 34%; percent splicing rescue at 7.5 mg/kg (HSALR strain 20b mice; [5]): 59.7%
CN(C)CCCOc1ccc(-c2nc3cc(-c4ccc5[nH]c(-c6ccc(C(=O)NCCN(C)C)cc6)nc5c4)ccc3[nH]2)cc1 [Compound 346] |  | 79.9 | 74.8 | 6.45 | percent splicing rescue at 7.5 mg/kg (HSALR strain 20b mice; [6]): 105%; percent splicing rescue at 7.5 mg/kg (HSALR strain 20b mice; [7]): 11.8%; percent splicing rescue at 7.5 mg/kg (HSALR strain 20b mice; [8]): 22.3%
CC(=O)NCCCn1cc(CCCCN(C)CCNC(=O)c2ccc(-c3nc4cc(-c5ccc6[nH]c(-c7ccc(C(=O)NCCN(C)C)cc7)nc6c5)ccc4[nH]3)cc2)nn1 [Compound 402] |  |  |  | 10.9 | MBNL1 % splicing rescue at 5 μM [1]: −33.8%
C#CCCCCN(C)CCNC(=O)c1ccc(-c2nc3cc(-c4ccc5[nH]c(-c6ccc(OCCCN(C)C)cc6)nc5c4)ccc3[nH]2)cc1 [Compound 403] |  |  | 90.5 | 5.6 | 
O=C(NCCN1CCN(CCNC(=O)c2ccc3nc(-c4ccc(-c5nc6ccc(C(=O)NCCN7CCCCC7)cc6[nH]5)cc4)[nH]c3c2)CC1)NCCN1CCN(CCNC(=O)c2ccc3nc(-c4ccc(-c5nc6ccc(C(=O)NCCN7CCCCC7)cc6[nH]5)cc4)[nH]c3c2)CC1 [Compound 406, N,N′-((((carbonylbis(azanediyl))bis(ethane-2,1-diyl))bis(piperazine-4,1-diyl))bis(ethane-2,1-diyl))bis(2-(4-(6-((2-(piperidin-1-yl)ethyl)carbamoyl)-1H-benzo[d]imidazol-2-yl)phenyl)-1H-benzo[d]imidazole-6-carboxamide)] |  | 9.4 | 54.3 | 3.03 | 
CN(C)CCNC(=O)c1ccc(-c2nc3cc(-c4ccc5[nH]c(-c6ccc(C(=O)NCCN(C)CCCCc7cn(CCCNC(=O)CCC(=O)NCCCn8cc(CCCCN(C)CCNC(=O)c9ccc(-c%10nc%11cc(-c%12ccc%13[nH]c(-c%14ccc(C(=O)NCCN(C)C)cc%14)nc%13c%12)ccc%11[nH]%10)cc9)nn8)nn7)cc6)nc5c4)ccc3[nH]2)cc1 [Compound 408] |  | 3.9 |  | 0.51 | 
CN(C)CCCOc1ccc(-c2nc3cc(-c4ccc5[nH]c(-c6ccc(C(=O)NCCCn7cc(COCCOCCN(C)C(=O)c8ccc(-c9nc%10cc(-c%11ccc%12[nH]c(-c%13ccc(C(=O)NCCN(C)C)cc%13)nc%12c%11)ccc%10[nH]9)cc8)nn7)cc6)nc5c4)ccc3[nH]2)cc1 [Compound 458] |  |  |  | 20.5 | MBNL1 % splicing rescue at 5 μM [1]: −14.7%
CN(C)CCCOc1ccc(-c2nc3cc(-c4ccc5[nH]c(-c6ccc(C(=O)NCCCn7cc(COCCOCCOCCOCCN(C)C(=O)c8ccc(-c9nc%10cc(-c%11ccc%12[nH]c(-c%13ccc(C(=O)NCCN(C)C)cc%13)nc%12c%11)ccc%10[nH]9)cc8)nn7)cc6)nc5c4)ccc3[nH]2)cc1 [Compound 459] |  |  |  | 27.3 | MBNL1 % splicing rescue at 5 μM [1]: −2.6%
C[C@@H](NC(=O)CNCCCn1cc(CCCCN(C)CCNC(=O)c2ccc(-c3nc4cc(-c5ccc6[nH]c(-c7ccc(C(=O)NCCN(C)C)cc7)nc6c5)ccc4[nH]3)cc2)nn1)C(=O)N[C@H](C)C(=O)N[C@H](C)C(=O)N[C@H](C)C(=O)N(CCCn1cc(CCCCN(C)CCNC(=O)c2ccc(-c3nc4cc(-c5ccc6[nH]c(-c7ccc(C(=O)NCCN(C)C)cc7)nc6c5)ccc4[nH]3)cc2)nn1)CC(N)=O [Compound 460] |  |  |  | 1.3 | MBNL1 % splicing rescue at 5 μM [1]: −21.0%
C[C@@H](NC(=O)CNCCCn1cc(CCCCN(C)CCNC(=O)c2ccc(-c3nc4cc(-c5ccc6[nH]c(-c7ccc(OCCCN(C)C)cc7)nc6c5)ccc4[nH]3)cc2)nn1)C(=O)N[C@H](C)C(=O)N[C@H](C)C(=O)N[C@H](C)C(=O)N(CCCn1cc(CCCCN(C)CCNC(=O)c2ccc(-c3nc4cc(-c5ccc6[nH]c(-c7ccc(OCCCN(C)C)cc7)nc6c5)ccc4[nH]3)cc2)nn1)CC(N)=O [Compound 461] |  |  | −35.5 | 2.5 | 
